Measurements published in BindingDB's records for doi:10.1111/cbdd.12751 (Shandong University, 2016).

Target: Gag-Pol polyprotein (Human immunodeficiency virus type 1 group M subtype B (isolate NY5), UniProt P12497)
Assay: HIV-1 RT Inhibition Assay
Details: 37 °C
Description: A reverse transcriptase (RT) assay kit produced by Roche was selected for the RT inhibition assay. All the reagents for performing the RT reaction came with the kit, and the ELISA procedures for RT inhibition assay were carried out following the description in the kit protocol. Briefly, the reaction mixture containing template/primer complex, viral nucleotides (dNTPs), and RT in the incubation buffer with or without inhibitors was incubated for 1 h at 37 °C. After that, the reaction mixture was transferred to a streptavidincoated microtiter plate and incubated for another 1 h at 37 °C to make sure that retranscriptional cDNA chain consisted of biotin-labeled dNTPs bound to streptavidin. Then, unbound dNTPs were removed using washing buffer and anti-DIG-POD working solution was added. After incubation for 1 h at 37 °C, the DIG-labeled dNTPs incorporated into cDNA were bound to the anti-DIG-POD antibody. The unbound anti-DIG-PODs were removed.

| SMILES | IC50 [nM] |
| --- | --- |
| Cc1cc(C#N)cc(C)c1Oc1nc(Nc2ccc(C#N)cc2)nc(N)c1Br | 370 |
| Cc1ccnc2c1NC(=O)c1cccnc1N2C1CC1 [BI-RG-587] | 690 |
| NS(=O)(=O)c1ccc(NC(=O)CSc2nc3ncccc3n2-c2ccc(C3CC3)c3ccccc23)c(Br)c1 [N-(2-Bromo-4-sulfonamido-phenyl)-2-(1-(4-cyclopropylnaphthalen-1-yl)-1H-imidazo[4,5-b]pyridin-2-ylthio)acetamide (12)] | 1500 |
